Consider two molecules from patent publication US20260216057A1, “PHARMACEUTICAL COMPOSITIONS FOR HERPES VIRUS” (priority 2022, published 2026).

Series [1] has as its system HSV-1. Nature of the series: HSV-1 antiviral assay, cytopathic effect (CPE) inhibition in vero cells. It counts as cell-based. To be noted: 4 days, read-out: in vitro EC50 against HSV-1. The method, then: (§1) Cytopathic Effect (CPE) Inhibition Assay
(§2) Cell culture—vero cells were cultured in Dulbecco's Modified Eagle Medium (DMEM) supplemented with 10% fetal bovine serum and 100 units/mL penicillin and streptomycin. The cells were passaged 2-3 times per week to maintain sub-confluent densities.
HSV-1 antiviral assay—vero cells were seeded into 96-well plates at a density of 2.5×10^3 cells per well and allowed to attach overnight. Following attachment, the media was replaced with 50 μL of infection medium (DMEM supplemented with 2% fetal bovine serum and 100 units/mL penicillin and streptomycin). A Tecan D300e digital dispenser was then used to add compounds to the culture using an 8-point 3-fold serial dilution format. The DMSO concentration was normalized to 0.5% for all treatments. Following compound addition, 50 μL of infection medium containing 80 TCID50 HSV-1 was added to the cells and incubated at 37° C. for 4 days. After the incubation, the plates were equilibrated to room temperature, the media was removed, and 60 μL of a 1:1 dilution of Cell titer glow and phosphate buffered saline was added to the cells. Following a 5-minute incubation, cell viability was quantified by measuring luminance using a Tecan Infinite M1000 Pro plate reader.
(§3) Vero cells were cultured in Dulbecco's Modified Eagle Medium (DMEM) supplemented with 10% foetal bovine serum and 100 units/mL penicillin and streptomycin. The cells were passaged 2-3 times per week to maintain sub-confluent densities.
Vero cells were seeded into 96-well plates at a density of 2.5×10^3 cells per well and allowed to attach overnight. Following attachment, the media was replaced with 50 μL of infection medium (DMEM supplemented with 2% foetal bovine serum and 100 units/mL penicillin and streptomycin). A Tecan D300e digital dispenser was then used to add compounds to the culture using an 8-point 3-fold serial dilution format. The DMSO concentration was normalized to 0.5% for all treatments. […] Following a 5-minute incubation, cell viability was quantified by measuring luminance using a Tecan Infinite M1000 Pro plate reader.

Series [2] has as its system HSV-2 G strain. Nature of the series: HSV-2 antiviral assay, cytopathic effect (CPE) inhibition in vero cells. It counts as cell-based. How it is done: as §1, §2
(§4) HSV-2 antiviral assay—vero cells were seeded into 96-well plates at a density of 1.0×10^4 cells per well and allowed to attach overnight. Following attachment, the media was replaced with 50 μL of infection medium (DMEM supplemented with 2% fetal bovine serum and 100 units/mL penicillin and streptomycin). A Tecan D300e digital dispenser was then used to add compounds to the culture using an 8-point 3-fold serial dilution format. The DMSO concentration was normalized to 0.5% for all treatments. Following compound addition, 50 μL of infection medium containing 160 TCID50 HSV-2 G strain was added to the cells and incubated at 37° C. for 5 days. After the incubation, 10 μL/well of WST-8 chromogenic reagent was added and the plates incubated at 37° C. for 3 hours. Following the incubation, cell viability was quantified by measuring the absorbance at 460 nm and 620 nm using a Tecan Infinite M1000 Pro plate reader.
as §3
as §4, with “Vero” for “HSV-2 antiviral assay—vero”, “foetal” for “fetal”
In general terms: Protection from cytopathic effect is a common read-out in antiviral testing.

Series [3] concerns HSV-2. The following applies: Field et al. (2013); read-out: in-vitro EC50 against HSV-2; cited from earlier work.
Series [4] relates to recurrent genital HSV-2. To be noted: 28 days daily oral dosing; pritelivir 100 mg (after 400 mg loading dose), valacyclovir 500 mg; cited from earlier work.
For series [5] the following is noted: Wald et al. (2014); cited from earlier work.
Series [6] relates to carbonic anhydrase I and/or carbonic anhydrase II. As to the kind of experiment: Carbonic anhydrase inhibition. It counts as biochemical. An excerpt:
Carbonic anhydrase inhibition can be measured using a carbonic anhydrase I assay as described in Katritzky et al. (J. Med. Chem. 1987, 30:2058) and a carbonic anhydrase […] assay as described in lyer et al. (J. Biomol. Screen 2006, 11:782).

A short description of series [7]: Example 10: Compound 1 (Form A) aqueous suspension SC PK study in rat. The following applies: 10 mg/kg. It counts as in vivo, male Sprague Dawley rats. How it is done:
An aqueous suspension of Compound 1 free form (crystalline Form A) in a 0.9% NaCl+0.5% polysorbate 80 vehicle at a concentration of 3 mg/mL was prepared as follows: • 1) Vehicle (0.9% w/w NaCl and 0.5% w/w polysorbate 80) was prepared by dissolving NaCl and polysorbate 80 in water. • 2) An appropriate amount of Compound 1 free form was weighed and added to the vehicle. • 3) The mixture was vortexed for 1 minute, stirred for 10 minutes and then sonicated for 15 minutes. • 4) The final dosing formulation was a homogenous white cloudy suspension.
Male Sprague Dawley (SD) rats with ~230-250 g body weight (ages 6-8 weeks) were used for the pharmacokinetic study. The animals had free access to food and water.
The Compound 1 suspension described above was administered via sub-cutaneous injection to each animal group (n=3) with a dosing volume of 3.33 mL/kg to achieve a 10 mg/kg dose.
At each time point, approximately 200 μL whole blood was collected in a K2EDTA tube via the jugular vein. Blood samples were put on ice and centrifuged at 2000 g for 5 min to obtain a plasma sample within 15 minutes. Plasma samples were stored at approximately −70° C. until analyzed by LC-MS.

Series [8] can be described thus: Allometric scaling of multi-species PK data to human.
Where [9] appears, read: Human alphaherpesvirus 1, Vero, 96 h.
[10] abbreviates: Human alphaherpesvirus 2, Vero, 120 h, CPE assay, vero cells, 5 days, read-out: in vitro EC50 against HSV-2.

Structures are written as SMILES. Read-outs that look alike come from different tables or passages of the source.

In general, EC50 refers to the concentration at which the effect is half-maximal. Turning to `Cc1nc(N(C)C(=O)Cc2ccc(-c3ccccn3)cc2)sc1S(N)(=O)=O` [pritelivir, N-methyl-N-(4-methyl-5-sulfamoyl-1,3-thiazol-2-yl)-2-[4-(pyridin-2-yl)phenyl]acetamide], the figures for the EC50 in series [1] (setting [9]), in series [2] (setting [10]) and in series [3] were 0.047 µM, 0.055 µM and 0.029 µM, respectively. The “HSV shedding, % of genital swabs analysed” value in series [4] was 2.4%. Moreover, the “human biological terminal half-life” value in series [5] is reported as “up to 80 hours”.

As for `Cc1nc(N2CCCN(c3ccc(-c4cc(F)ccc4F)cc3)C2=O)sc1S(N)(=O)=O` [Compound 1, 2-(3-(2′,5′-difluoro-[1,1′-biphenyl]-4-yl)-2-oxotetrahydropyrimidin-1(2H)-yl)-4-methylthiazole-5-sulfonamide], the EC50 in series [1] is 0.015 µM; in series [1] (setting [9]) it was ~0.019 µM; in series [2] (CPE assay, vero cells, 5 days, read-out: in vitro EC50 against HSV-2), 0.013 µM; in series [2] (setting [10]), ~0.011 µM; in series [2] (Human alphaherpesvirus 2, Vero, Example 9, n=35, read-out: EC50 in the HSV-2 antiviral assay), 0.011 µM. The carbonic anhydrase inhibition result in series [6] was “no or low levels of carbonic anhydrase inhibition”. Also, the “prolonged exposure out to” value in series [7] is on record as “at least 58 days”. Also, in series [7], the “variability in plasma concentrations” value is listed as “low”. For the same molecule, the predicted human clearance in series [8] is 0.06 L/h.
